Test results from patent publication US10093653B2, “Vitamin D receptor-coregulator inhibitors” (UWM Research Foundation, Inc., priority 2011, dated 2018).
Converted amounts (≈) assume the structure as drawn. One block for each molecule: values may come before it.

Experiments:
in vitro = details: PAMPA
physchem = details: pH 7.4, aqueous buffer, kinetic from dmso stock
CYP24A1 = CYP24A1 expression levels; format: cell-based; details: compound and calcitriol
[1] = PAMPA
VDR-SRC2-1 = target: T1, VDR-SRC2-1 (Homo sapiens, UniProt P11473, DEL165-215); experiment: VDR-coregulator binding FP, Texas Red-labeled peptide; details: 3 h
T1 construct: made in house
T1 sequence (P11473 with tags, fused parts or gaps DEL165-215 limits assumed): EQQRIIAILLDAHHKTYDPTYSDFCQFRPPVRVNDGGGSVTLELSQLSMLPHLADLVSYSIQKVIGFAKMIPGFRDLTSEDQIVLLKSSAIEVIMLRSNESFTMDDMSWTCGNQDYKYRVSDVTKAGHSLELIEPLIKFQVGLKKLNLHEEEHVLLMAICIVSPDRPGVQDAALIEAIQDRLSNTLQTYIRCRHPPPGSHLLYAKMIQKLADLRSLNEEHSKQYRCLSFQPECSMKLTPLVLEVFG

SKOV-3 cells [2] = experiment: Western blots for phospho-p38 MAPkinase and phospho SAPK/JNK; format: cell-based; details: SKOV-3, 25 uM, within 24 hours
Description: (§1) Vitamin-d/VDR signaling protects the cancer cells from reactive oxygen species (ROS) induced cellular damages.

VDR in SKOV-3 cells = experiment: VDR expression, western blotting of whole cell lysate; format: cell-based; details: SKOV-3, 24 hours; 31b 25 and 50 uM, 32b 50 uM
Protocol: Expression of VDR was analyzed by western blotting of whole cell lysate using monoclonal antibody against VDR (Neomarker, Calif. cat no-RT-200PO).

ECC-1 = experiment: Cytotoxicity, MTS assay; format: cell-based; details: ECC-1 endometrial cancer cell-line, within 48 hours
TRPV6 in DU145 cells = experiment: TRPV6 expression, semi-quantitative RT-PCR; format: cell-based
DU145 cells = experiment: Cytotoxicity seen in TRPV6 expression study; format: cell-based; details: concentrations higher than 20 μM
VDR-SRC2 interaction = target: T2, VDR-SRC2 interaction (Homo sapiens, UniProt P11473, DEL165-215); experiment: Pull down assay, VDR and SRC2 bearing all three NIDs
T2 sequence (P11473 with tags, fused parts or gaps DEL165-215 limits assumed): T1 sequence (P11473 with tags, fused parts or gaps DEL165-215 limits assumed)

SKOV-3 cells [3] = experiment: Cell cycle analysis by FACS; format: cell-based; details: SKOV-3, 24 hours
Description: Inducing cell cycle arrest or targeting cell-cycle regulators by small molecule modulators has shown promising outcomes in animal models.

SKOV-3 = experiment: Cytotoxicity, MTS assay; format: cell-based; details: SKOV-3, within 48 hours
VDR-Hr1 = target: T3, VDR-Hr1 (Homo sapiens, UniProt P11473, DEL165-215); experiment: VDR-coregulator binding FP, Texas Red-labeled peptide; details: 3 h
T3 construct: made in house
T3 sequence (P11473 with tags, fused parts or gaps DEL165-215 limits assumed): T1 sequence (P11473 with tags, fused parts or gaps DEL165-215 limits assumed)

SKOV-3 cells [4] = experiment: Reactive oxygen species levels; format: cell-based; details: SKOV-3, within 24 hours
Description: as §1

OVCAR-8 = experiment: Cytotoxicity, MTS assay; format: cell-based; details: OVCAR-8, within 48 hours
VDR-LBD / SRC2-3 peptide = target: T4, VDR-LBD / SRC2-3 peptide (Homo sapiens, UniProt P11473, DEL165-215); experiment: Identification of reaction partner, pre-incubation FP; format: binding; details: FP after 5 minutes
T4 construct: made in house
T4 sequence (P11473 with tags, fused parts or gaps DEL165-215 limits assumed): T1 sequence (P11473 with tags, fused parts or gaps DEL165-215 limits assumed)

[5] = 12 h, pH 7.4
SKOV-3 cells [6] = experiment: Mitochondrial transmembrane depolarization potential; format: cell-based
SKOV-3 cells [7] = experiment: Western blots for cleaved PARP-1 and cleaved caspase-3; format: cell-based; details: SKOV-3, within 24 hours
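Wherever Papp is given: passive permeability measured by parallel artificial membrane permeability assay, each experiment run in triplicate.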
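Wherever Permeability Log(Pe) is given: passive permeability measured by parallel artificial membrane permeability assay, each experiment run in triplicate.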

Papp (in vitro): 0.148 ×10⁻⁶ cm/s | solubility at 12 h (physchem): 503 µM (≈ 195 µg/mL)
SMILES: Cc1[nH]c2ccccc2c1C(Nc1ccccc1)c1ccc(OCCCO)cc1 (stereo not shown) [Compound 30i, 3-(4-((2-methyl-1H-indol-3-yl)(phenylamino)methyl)phenoxy)propan-1-ol]

Permeability Log(Pe) [1]: −6.24 cm/s | Inhibition of VDR-SRC2-1 binding (VDR-SRC2-1): no inhibition | Inhibition of VDR-SRC2 interaction in pull down assay (VDR-SRC2 interaction; 50 μM and 100 μM, residual interaction still detected): significant inhibition | VDR-SRC2 interaction after pre-incubation of SRC2 with compound (VDR-SRC2 interaction; beads washed, then treated with VDR): VDR-SRC2 interactions could be verified | Inhibition of VDR-SRC2 interaction in pull down assay (VDR-SRC2 interaction; different concentrations, with 1,25(OH)2D3): blocked in a dose dependent manner | Inhibition of VDR-Hr1 binding (VDR-Hr1): no inhibition | FP signal after pre-incubation with SRC2-3 for 3 hours, then addition of VDR-LBD and LG190178 (VDR-LBD / SRC2-3 peptide): did not change | FP signal after pre-incubation with VDR-LBD and LG190178 for 3 hours, then addition of SRC2-3 (VDR-LBD / SRC2-3 peptide): did result in a change of FP signal | Solubility [5]: 68.0 µM (≈ 25.9 µg/mL)
SMILES: Cc1[nH]c2ccccc2c1C(Nc1ccc(Cl)cc1)c1ccccc1Cl (stereo not shown) [Compound 31b, 4-chloro-N-((2-chlorophenyl)(2-methyl-1H-indol-3-yl)methyl)aniline]
CYP24A1 induction with calcitriol, in comparison to calcitriol treatment (CYP24A1): significant increase in CYP24A1 induction | Activation of SAPK/JNK (SKOV-3 cells [2]): strong/sustained activation of SAPK/JNK | Activation of p38 MAPkinase (SKOV-3 cells [2]): activation of p38 MAPkinase | Expression of VDR (VDR in SKOV-3 cells): downregulation of VDR | Cytotoxicity, cell viability (ECC-1): potent cytotoxicity | TRPV6 transcription in the presence of 1,25-(OH)2D3 (TRPV6 in DU145 cells; 20 nM 1,25-(OH)2D3, different concentrations): reduced in a dose dependent manner | TRPV6 regulation, single treatment (TRPV6 in DU145 cells; 20 μM, without 1,25-(OH)2D3): no regulation of TRPV6 | Cytotoxicity in DU145 cells (DU145 cells): increased cytotoxicity | Apoptotic (subG1/G0) population (SKOV-3 cells [3]): increase | Population in G1 and G2/M phase (SKOV-3 cells [3]): reduced | S-phase arrest of cycling cells (SKOV-3 cells [3]): restricted the progression of cycling cells in S-phase significantly | Cytotoxicity, cell viability (SKOV-3): potent cytotoxicity | Reactive oxygen species level compared to vehicle (SKOV-3 cells [4]): elevated level of reactive production | Cytotoxicity, cell viability (OVCAR-8): potent cytotoxicity | Mitochondrial transmembrane depolarization potential (ΔΨm) (SKOV-3 cells [6]): induced activation of mitochondrial transmembrane depolarization potential | Activation of caspase-3 (SKOV-3 cells [7]): activation of caspase-3 | Cleavage of PARP-1 (SKOV-3 cells [7]): significant cleavage of PARP-1
